Legend:
Assay in all cases: Kinase Profiling (KINOMEscan)
Format in all cases: binding
[1] = molecular target: 456 kinases (of these 395 non-mutant kinases) (Homo sapiens, UniProt P42336, M1043I); conditions: PIK3CA(M1043I); 10 μM
[2] = molecular target: 456 kinases (of these 395 non-mutant kinases) (Homo sapiens, UniProt P00519, M351T); conditions: ABL1(M351T)-phosphorylated; 10 μM
[3] = molecular target: 456 kinases (of these 395 non-mutant kinases) (Homo sapiens, UniProt P22694); conditions: PKAC-beta; 10 μM
[4] = molecular target: 456 kinases (of these 395 non-mutant kinases) (Homo sapiens, UniProt Q9Y4K4); conditions: MAP4K5; 10 μM
[5] = molecular target: 456 kinases (of these 395 non-mutant kinases) (Homo sapiens, UniProt P42336, H1047Y); conditions: PIK3CA(H1047Y); 10 μM
[6] = molecular target: 456 kinases (of these 395 non-mutant kinases) (Homo sapiens, UniProt Q8IYT8); conditions: ULK2; 10 μM
[7] = molecular target: 456 kinases (of these 395 non-mutant kinases) (Homo sapiens, UniProt Q02763); conditions: TIE2; 10 μM
[8] = molecular target: 456 kinases (of these 395 non-mutant kinases) (Homo sapiens, UniProt P52564); conditions: MEK6; 10 μM
[9] = molecular target: 456 kinases (of these 395 non-mutant kinases) (Homo sapiens, UniProt P78356); conditions: PIP5K2B; 10 μM
[10] = molecular target: 456 kinases (of these 395 non-mutant kinases) (Homo sapiens, UniProt Q6P3R8); conditions: NEK5; 10 μM
[11] = molecular target: 456 kinases (of these 395 non-mutant kinases) (Homo sapiens, UniProt Q04912); conditions: MST1R; 10 μM
[12] = molecular target: 456 kinases (of these 395 non-mutant kinases) (Homo sapiens, UniProt P22607); conditions: FGFR3; 10 μM
[13] = molecular target: 456 kinases (of these 395 non-mutant kinases) (Homo sapiens, UniProt P31749); conditions: AKT1; 10 μM
[14] = molecular target: 456 kinases (of these 395 non-mutant kinases) (Homo sapiens, UniProt P54762); conditions: EPHB1; 10 μM
[15] = molecular target: 456 kinases (of these 395 non-mutant kinases) (Homo sapiens, UniProt Q9UEW8); conditions: STK39; 10 μM
[16] = molecular target: 456 kinases (of these 395 non-mutant kinases) (Homo sapiens, UniProt P43403); conditions: ZAP70; 10 μM
[17] = molecular target: 456 kinases (of these 395 non-mutant kinases) (Homo sapiens, UniProt Q9BYT3); conditions: STK33; 10 μM
[18] = molecular target: 456 kinases (of these 395 non-mutant kinases) (Homo sapiens, UniProt Q00535); conditions: CDK5; 10 μM
[19] = molecular target: 456 kinases (of these 395 non-mutant kinases) (Homo sapiens, UniProt Q9BZL6); conditions: PRKD2; 10 μM
[20] = molecular target: 456 kinases (of these 395 non-mutant kinases) (Homo sapiens, UniProt O75914); conditions: PAK3; 10 μM
[21] = molecular target: 456 kinases (of these 395 non-mutant kinases) (Homo sapiens, UniProt P48729); conditions: CSNK1A1; 10 μM
[22] = molecular target: 456 kinases (of these 395 non-mutant kinases) (Homo sapiens, UniProt Q96GD4); conditions: AURKB; 10 μM
[23] = molecular target: 456 kinases (of these 395 non-mutant kinases) (Homo sapiens, UniProt Q9Y6R4); conditions: MAP3K4; 10 μM
[24] = molecular target: 456 kinases (of these 395 non-mutant kinases) (Homo sapiens, UniProt Q13163); conditions: MEK5; 10 μM
[25] = molecular target: 456 kinases (of these 395 non-mutant kinases) (Homo sapiens, UniProt Q9NRP7); conditions: STK36; 10 μM
[26] = molecular target: 456 kinases (of these 395 non-mutant kinases) (Homo sapiens, UniProt P22607, G697C); conditions: FGFR3(G697C); 10 μM
[27] = molecular target: 456 kinases (of these 395 non-mutant kinases) (Homo sapiens, UniProt Q13523); conditions: PRP4; 10 μM
[28] = molecular target: 456 kinases (of these 395 non-mutant kinases) (Homo sapiens, UniProt P24723); conditions: PRKCH; 10 μM
[29] = molecular target: 456 kinases (of these 395 non-mutant kinases) (Homo sapiens, UniProt P00519, T315I); conditions: 10 μM
[30] = molecular target: 456 kinases (of these 395 non-mutant kinases) (Homo sapiens, UniProt O75716); conditions: STK16; 10 μM
[31] = molecular target: 456 kinases (of these 395 non-mutant kinases) (Homo sapiens, UniProt O14730); conditions: RIOK3; 10 μM
[32] = molecular target: 456 kinases (of these 395 non-mutant kinases) (Homo sapiens, UniProt P21802); conditions: FGFR2; 10 μM
Sequence of 456 kinases (of these 395 non-mutant kinases) (Homo sapiens, UniProt P21802) (P21802 22-821 limits assumed, change not shown): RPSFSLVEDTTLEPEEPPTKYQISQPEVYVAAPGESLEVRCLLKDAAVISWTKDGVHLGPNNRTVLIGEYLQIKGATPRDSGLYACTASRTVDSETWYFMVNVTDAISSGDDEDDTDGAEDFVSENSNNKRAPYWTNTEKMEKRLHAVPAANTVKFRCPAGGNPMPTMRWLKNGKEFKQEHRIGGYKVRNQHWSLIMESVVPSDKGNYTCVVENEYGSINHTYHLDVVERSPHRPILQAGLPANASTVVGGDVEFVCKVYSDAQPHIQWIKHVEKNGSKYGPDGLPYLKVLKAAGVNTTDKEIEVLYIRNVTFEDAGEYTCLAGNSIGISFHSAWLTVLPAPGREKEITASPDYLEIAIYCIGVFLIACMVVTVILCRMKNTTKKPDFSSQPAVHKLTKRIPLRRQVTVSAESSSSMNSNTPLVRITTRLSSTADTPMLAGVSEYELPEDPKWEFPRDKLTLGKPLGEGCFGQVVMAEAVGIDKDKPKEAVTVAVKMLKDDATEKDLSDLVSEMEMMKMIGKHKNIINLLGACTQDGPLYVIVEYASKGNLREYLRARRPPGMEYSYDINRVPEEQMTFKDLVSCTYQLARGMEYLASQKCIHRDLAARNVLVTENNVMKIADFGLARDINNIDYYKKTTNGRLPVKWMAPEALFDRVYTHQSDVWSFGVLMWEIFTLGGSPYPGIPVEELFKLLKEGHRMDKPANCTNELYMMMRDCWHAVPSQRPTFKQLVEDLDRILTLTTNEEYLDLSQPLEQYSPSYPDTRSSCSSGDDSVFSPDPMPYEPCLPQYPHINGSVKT

Sequence of 456 kinases (of these 395 non-mutant kinases) (Homo sapiens, UniProt Q02763) (Q02763 23-1124 limits assumed, change not shown): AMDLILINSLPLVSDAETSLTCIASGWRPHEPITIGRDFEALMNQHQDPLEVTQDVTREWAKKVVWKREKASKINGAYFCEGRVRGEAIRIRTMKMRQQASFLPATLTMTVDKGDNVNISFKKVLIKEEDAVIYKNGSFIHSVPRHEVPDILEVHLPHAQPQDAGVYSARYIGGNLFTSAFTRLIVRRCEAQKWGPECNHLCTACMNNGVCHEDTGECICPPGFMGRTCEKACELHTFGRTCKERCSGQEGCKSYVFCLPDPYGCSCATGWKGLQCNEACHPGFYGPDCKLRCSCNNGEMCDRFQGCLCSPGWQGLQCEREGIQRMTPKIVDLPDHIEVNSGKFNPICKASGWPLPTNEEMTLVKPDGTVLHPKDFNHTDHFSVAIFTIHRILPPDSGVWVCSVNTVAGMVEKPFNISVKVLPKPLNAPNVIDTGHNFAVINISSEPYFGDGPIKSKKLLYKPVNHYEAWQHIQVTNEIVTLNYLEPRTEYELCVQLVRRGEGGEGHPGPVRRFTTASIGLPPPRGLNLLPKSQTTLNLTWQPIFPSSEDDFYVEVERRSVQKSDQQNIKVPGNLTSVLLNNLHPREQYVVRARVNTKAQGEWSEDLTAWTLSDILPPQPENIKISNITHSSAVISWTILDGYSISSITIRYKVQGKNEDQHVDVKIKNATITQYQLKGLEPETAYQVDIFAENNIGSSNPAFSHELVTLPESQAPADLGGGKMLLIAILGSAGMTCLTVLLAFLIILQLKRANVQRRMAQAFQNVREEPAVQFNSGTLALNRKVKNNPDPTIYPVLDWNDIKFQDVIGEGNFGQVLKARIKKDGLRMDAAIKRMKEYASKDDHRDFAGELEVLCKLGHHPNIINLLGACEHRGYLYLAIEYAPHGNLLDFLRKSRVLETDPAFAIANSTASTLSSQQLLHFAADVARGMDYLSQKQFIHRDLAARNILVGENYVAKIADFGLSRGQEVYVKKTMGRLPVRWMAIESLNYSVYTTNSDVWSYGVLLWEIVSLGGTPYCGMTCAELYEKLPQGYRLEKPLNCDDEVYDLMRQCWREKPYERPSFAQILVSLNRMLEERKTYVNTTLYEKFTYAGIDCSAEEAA
Sequence of 456 kinases (of these 395 non-mutant kinases) (Homo sapiens, UniProt P22607) (P22607 23-806 limits assumed, change not shown): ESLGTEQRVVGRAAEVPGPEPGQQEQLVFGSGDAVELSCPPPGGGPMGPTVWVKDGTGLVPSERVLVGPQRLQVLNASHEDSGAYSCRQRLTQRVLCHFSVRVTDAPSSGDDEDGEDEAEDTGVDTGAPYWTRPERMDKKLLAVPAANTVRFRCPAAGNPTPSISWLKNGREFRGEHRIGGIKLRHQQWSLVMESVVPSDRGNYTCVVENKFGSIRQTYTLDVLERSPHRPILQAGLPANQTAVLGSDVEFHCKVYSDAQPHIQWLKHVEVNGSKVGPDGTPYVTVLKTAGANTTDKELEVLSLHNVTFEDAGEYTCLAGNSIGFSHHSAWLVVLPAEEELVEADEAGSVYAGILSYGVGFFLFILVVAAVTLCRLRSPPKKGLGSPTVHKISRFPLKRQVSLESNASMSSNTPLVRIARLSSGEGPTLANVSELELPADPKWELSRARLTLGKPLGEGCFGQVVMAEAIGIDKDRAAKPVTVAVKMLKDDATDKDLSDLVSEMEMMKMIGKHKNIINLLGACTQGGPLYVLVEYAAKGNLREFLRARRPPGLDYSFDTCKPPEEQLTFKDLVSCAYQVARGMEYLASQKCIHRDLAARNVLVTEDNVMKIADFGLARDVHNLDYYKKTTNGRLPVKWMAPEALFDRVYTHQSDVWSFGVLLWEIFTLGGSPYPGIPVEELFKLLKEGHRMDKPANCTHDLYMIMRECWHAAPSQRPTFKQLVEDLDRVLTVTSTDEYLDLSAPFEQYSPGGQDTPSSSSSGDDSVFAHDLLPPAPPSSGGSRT
Sequence of 456 kinases (of these 395 non-mutant kinases) (Homo sapiens, UniProt P54762) (P54762 18-984 limits assumed, change not shown): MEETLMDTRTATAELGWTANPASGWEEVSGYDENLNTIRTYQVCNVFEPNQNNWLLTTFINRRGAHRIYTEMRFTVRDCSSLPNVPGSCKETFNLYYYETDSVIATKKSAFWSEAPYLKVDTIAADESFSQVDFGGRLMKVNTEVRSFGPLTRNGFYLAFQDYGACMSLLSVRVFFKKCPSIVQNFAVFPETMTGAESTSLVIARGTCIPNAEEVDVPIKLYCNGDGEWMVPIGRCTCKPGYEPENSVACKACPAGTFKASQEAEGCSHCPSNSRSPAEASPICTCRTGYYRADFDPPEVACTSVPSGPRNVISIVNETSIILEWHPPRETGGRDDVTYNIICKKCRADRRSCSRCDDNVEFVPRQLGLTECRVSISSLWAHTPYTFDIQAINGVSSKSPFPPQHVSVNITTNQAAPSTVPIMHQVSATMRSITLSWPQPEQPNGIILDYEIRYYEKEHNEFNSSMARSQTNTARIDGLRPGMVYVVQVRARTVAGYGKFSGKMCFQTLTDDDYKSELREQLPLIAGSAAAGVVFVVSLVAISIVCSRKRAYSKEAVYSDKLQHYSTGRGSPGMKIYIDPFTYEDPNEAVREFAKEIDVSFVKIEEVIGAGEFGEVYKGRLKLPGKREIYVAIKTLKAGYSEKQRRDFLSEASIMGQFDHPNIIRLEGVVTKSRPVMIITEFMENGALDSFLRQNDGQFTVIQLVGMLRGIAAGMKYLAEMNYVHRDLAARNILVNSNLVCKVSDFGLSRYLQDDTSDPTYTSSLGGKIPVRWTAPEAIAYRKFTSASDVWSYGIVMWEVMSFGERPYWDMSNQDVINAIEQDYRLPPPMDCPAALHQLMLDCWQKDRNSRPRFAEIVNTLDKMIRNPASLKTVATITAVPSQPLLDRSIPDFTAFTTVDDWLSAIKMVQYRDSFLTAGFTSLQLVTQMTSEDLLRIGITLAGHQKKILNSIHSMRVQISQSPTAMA
Sequence of 456 kinases (of these 395 non-mutant kinases) (Homo sapiens, UniProt O75716) (O75716 2-305 limits assumed, change not shown): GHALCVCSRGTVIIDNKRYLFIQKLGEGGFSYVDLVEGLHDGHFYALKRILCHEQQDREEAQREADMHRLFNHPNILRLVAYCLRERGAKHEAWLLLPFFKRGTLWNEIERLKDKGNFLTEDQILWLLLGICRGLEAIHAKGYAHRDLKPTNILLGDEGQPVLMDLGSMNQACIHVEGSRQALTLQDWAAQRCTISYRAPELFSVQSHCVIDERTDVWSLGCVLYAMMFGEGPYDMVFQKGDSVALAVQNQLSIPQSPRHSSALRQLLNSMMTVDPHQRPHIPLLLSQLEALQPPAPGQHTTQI
Sequence of 456 kinases (of these 395 non-mutant kinases) (Homo sapiens, UniProt P78356) (P78356 2-416 limits assumed, change not shown): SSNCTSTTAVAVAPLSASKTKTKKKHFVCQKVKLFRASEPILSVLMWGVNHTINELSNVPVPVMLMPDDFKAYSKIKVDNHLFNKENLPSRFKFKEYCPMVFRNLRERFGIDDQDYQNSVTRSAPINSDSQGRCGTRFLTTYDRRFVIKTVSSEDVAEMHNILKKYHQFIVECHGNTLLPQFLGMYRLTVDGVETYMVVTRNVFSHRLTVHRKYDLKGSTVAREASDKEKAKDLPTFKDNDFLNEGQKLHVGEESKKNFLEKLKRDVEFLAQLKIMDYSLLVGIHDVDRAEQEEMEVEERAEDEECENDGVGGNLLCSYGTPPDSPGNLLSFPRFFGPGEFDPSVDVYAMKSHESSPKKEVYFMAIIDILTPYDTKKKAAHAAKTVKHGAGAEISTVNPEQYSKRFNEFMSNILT
Sequence of 456 kinases (of these 395 non-mutant kinases) (Homo sapiens, UniProt P48729) (P48729 2-337 limits assumed, change not shown): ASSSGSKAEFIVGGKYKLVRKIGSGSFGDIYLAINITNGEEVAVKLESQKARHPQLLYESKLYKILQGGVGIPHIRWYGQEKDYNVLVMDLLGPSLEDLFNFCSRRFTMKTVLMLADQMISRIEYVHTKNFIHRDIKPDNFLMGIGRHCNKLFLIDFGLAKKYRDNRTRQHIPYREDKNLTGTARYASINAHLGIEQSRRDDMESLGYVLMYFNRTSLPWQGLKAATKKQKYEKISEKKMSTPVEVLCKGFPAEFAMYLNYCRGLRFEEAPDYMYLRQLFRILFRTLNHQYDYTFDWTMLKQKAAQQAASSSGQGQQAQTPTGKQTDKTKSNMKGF

In the case of CCc1ccccc1NC(=O)c1c(C)nsc1Nc1cnc2cc(F)ccc2n1 [Example 20, N-(2-Ethylphenyl)-5-[(6-fluoroquinoxalin-2-yl)amino]-3-methyl-1,2-thiazole-4-carboxamide], the “% Ctrl @ 10 μM” value [1] is reported as 76 % Ctrl, the “% Ctrl @ 10 μM” value [2] is reported as 90 % Ctrl and the “% Ctrl @ 10 μM” value [3] is reported as 82 % Ctrl. The “% Ctrl @ 10 μM” value [4] was 89 % Ctrl, the “% Ctrl @ 10 μM” value [5] was 100 % Ctrl and the “% Ctrl @ 10 μM” value [6] was 100 % Ctrl. For the same compound, the “% Ctrl @ 10 μM” value [7] was 100 % Ctrl, the “% Ctrl @ 10 μM” value [8] was 95 % Ctrl and the “% Ctrl @ 10 μM” value [9] was 86 % Ctrl. For the same compound, the “% Ctrl @ 10 μM” value [10] was 100 % Ctrl, the “% Ctrl @ 10 μM” value [11] was 100 % Ctrl and the “% Ctrl @ 10 μM” value [12] was 85 % Ctrl. For the same compound, the “% Ctrl @ 10 μM” value [13] was 100 % Ctrl, the “% Ctrl @ 10 μM” value [14] was 96 % Ctrl and the “% Ctrl @ 10 μM” value [15] was 100 % Ctrl. The “% Ctrl @ 10 μM” value [16] was 88 % Ctrl, the “% Ctrl @ 10 μM” value [17] was 100 % Ctrl and the “% Ctrl @ 10 μM” value [18] was 100 % Ctrl. The “% Ctrl @ 10 μM” value [19] was 91 % Ctrl, the “% Ctrl @ 10 μM” value [20] was 100 % Ctrl and the “% Ctrl @ 10 μM” value [21] was 92 % Ctrl. For the same compound, the “% Ctrl @ 10 μM” value [22] was 100 % Ctrl, the “% Ctrl @ 10 μM” value [23] was 84 % Ctrl and the “% Ctrl @ 10 μM” value [24] was 100 % Ctrl. The “% Ctrl @ 10 μM” value [25] was 75 % Ctrl, the “% Ctrl @ 10 μM” value [26] was 87 % Ctrl and the “% Ctrl @ 10 μM” value [27] was 87 % Ctrl. For the same compound, the “% Ctrl @ 10 μM” value [28] was 100 % Ctrl, the “% Ctrl @ 10 μM” value ([29]; ABL1(T315I)-nonphosphorylated) was 100 % Ctrl and the “% Ctrl @ 10 μM” value ([29]; ABL1(T315I)-phosphorylated) was 87 % Ctrl. For the same compound, the “% Ctrl @ 10 μM” value [30] was 100 % Ctrl, the “% Ctrl @ 10 μM” value [31] was 91 % Ctrl and the “% Ctrl @ 10 μM” value [32] was 80 % Ctrl.

— US9682995B2, “Amino-substituted isothiazoles” (BAYER PHARMA AKTIENGESELLSCHAFT, priority 2013, dated 2017)
